This is an account of results in patent US7541351B2, “Compounds for the treatment of hepatitis C” (Bristol-Myers Squibb Company, priority 2007, dated 2009).

Molecules are shown by their SMILES. Read-outs that look alike come from different tables or passages of the source.

In test [1] the target is T1, HCV NS5B RdRp genotype 1b (Hepatitis C virus genotype 1b, UniProt Q9WMX2).
T1 construct: The protein was expressed with an 18 amino acid C-terminal truncation to enhance the solubility; made in house; host or cells: E. coli BL21 (DE3)
T1 sequence (Q9WMX2 2420-2992): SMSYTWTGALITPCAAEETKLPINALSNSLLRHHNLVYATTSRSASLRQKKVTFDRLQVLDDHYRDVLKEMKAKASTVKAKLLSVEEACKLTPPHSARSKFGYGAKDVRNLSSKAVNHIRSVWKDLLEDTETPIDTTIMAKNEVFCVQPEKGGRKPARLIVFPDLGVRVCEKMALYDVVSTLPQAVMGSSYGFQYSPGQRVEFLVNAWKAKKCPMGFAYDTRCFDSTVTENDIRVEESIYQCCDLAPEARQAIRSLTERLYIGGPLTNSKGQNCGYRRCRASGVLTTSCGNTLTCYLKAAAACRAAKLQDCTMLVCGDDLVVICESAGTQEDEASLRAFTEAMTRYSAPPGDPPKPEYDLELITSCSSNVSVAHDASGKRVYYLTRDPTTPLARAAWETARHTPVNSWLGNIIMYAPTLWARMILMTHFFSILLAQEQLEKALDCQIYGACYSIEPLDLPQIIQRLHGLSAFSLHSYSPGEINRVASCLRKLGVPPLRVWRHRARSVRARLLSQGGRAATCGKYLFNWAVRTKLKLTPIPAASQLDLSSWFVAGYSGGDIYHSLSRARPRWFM
Briefly: Modified HCV NS5B RdRp enzyme assay (preincubation protocol). The format is biochemical. How it is done:
HCV NS5B RdRp cloning, expression, and purification. The cDNA encoding the NS5B protein of HCV, genotype 1b, was cloned into the pET21a expression vector. The protein was expressed with an 18 amino acid C-terminal truncation to enhance the solubility. The E. coli competent cell line BL21 (DE3) was used for expression of the protein. Cultures were grown at 37° C. for ˜4 hours until the cultures reached an optical density of 2.0 at 600 nm. The cultures were cooled to 20° C. and induced with 1 mM IPTG. Fresh ampicillin was added to a final concentration of 50 μg/ml and the cells were grown overnight at 20° C.
Cell pellets (3 L) were lysed for purification to yield 15-24 mgs of purified NS5B. The lysis buffer consisted of 20 mM Tris-HCl, pH 7.4, 500 mM NaCl, 0.5% triton X-100, 1 mM DTT, 1 mM EDTA, 20% glycerol, 0.5 mg/ml lysozyme, 10 mM MgCl2, 15 ug/ml deoxyribonuclease I, and Complete TM protease inhibitor tablets (Roche). After addition of the lysis buffer, frozen cell pellets were resuspended using a tissue homogenizer. To reduce the viscosity of the sample, aliquots of the lysate were sonicated on ice using a microtip attached to a Branson sonicator. The sonicated lysate was centrifuged at 100,000×g for 1 hr at 4° C. and filtered through a 0.2 μm filter unit (Corning).
The protein was purified using three sequential chromatography steps: Heparin sepharose CL-6B, polyU sepharose 4B, and Hitrap SP sepharose (Pharmacia). The chromatography buffers were identical to the lysis buffer but contained no lysozyme, deoxyribonuclease I, MgCl2 or protease inhibitor and the NaCl concentration of the buffer was adjusted according to the requirements for charging the protein onto the column. Each column was eluted with a NaCl gradient which varied in length from 5-50 column volumes depending on the column type. After the final chromatography step, the resulting purity of the enzyme is >90% based on SDS-PAGE analysis. The enzyme was aliquoted and stored at −80° C.
Standard HCV NS5B RdRp enzyme assay. HCV RdRp genotype 1b assays were run in a final volume of 60 μl in 96 well plates (Costar 3912). The assay buffer is composed of 20 mM Hepes, pH 7.5, 2.5 mM KCl, 2.5 mM MgCl2, 1 mM DTT, 1.6 U RNAse inhibitor (Promega N2515), 0.1 mg/ml BSA (Promega R3961), and 2% glycerol. All compounds were serially diluted (3-fold) in DMSO and diluted further in water such that the final concentration of DMSO in the assay was 2%. HCV RdRp genotype 1b enzyme was used at a final concentration of 28 nM. A polyA template was used at 6 nM, and a biotinylated oligo-dT 12 primer was used at 180 nM final concentration. Template was obtained commercially (Amersham 27-4110). Biotinylated primer was prepared by Sigma Genosys. 3H-UTP was used at 0.6 μCi (0.29 μM total UTP). Reactions were initiated by the addition of enzyme, incubated at 30° C. for 60 min, and stopped by adding 25 μl of 50 mM EDTA containing SPA beads (4 μg/μl, Amersham RPNQ 0007). Plates were read on a Packard Top Count NXT after >1 hr incubation at room temperature.
Modified HCV NS5B RdRp enzyme assay. A modified enzyme assay was performed essentially as described for the standard enzyme assay except for the following: The biotinylated oligo dT12 primer was precaptured on streptavidin-coated SPA beads by mixing primer and beads in assay buffer and incubating at room temperature for one hour. Unbound primer was removed after centrifugation. The primer-bound beads were resuspended in 20 mM Hepes buffer, pH 7.5 and used in the assay at final concentrations of 20 nM primer and 0.67 μg/μl beads. Order of addition in the assay: enzyme (14 nM) was added to diluted compound followed by the addition of a mixture of template (0.2 nM), 3H-UTP (0.6 μCi, 0.29 μM), and primer-bound beads, to initiate the reaction; concentrations given are final. Reactions were allowed to proceed for 4 hours at 30° C.
IC50 values for compounds were determined using seven different [I]. […]

The test system of test [2] is HCV replicon cells. Briefly: HCV replicon FRET assay. The format is cell-based. The source says:
FRET Assay Preparation. To perform the HCV FRET screening assay, 96-well cell culture plates were used. The FRET peptide (Anaspec, Inc.) (Taliani et al., Anal. Biochem. 1996, 240, 60-67) contains a fluorescence donor, EDANS, near one end of the peptide and an acceptor, DABCYL, near the other end. The fluorescence of the peptide is quenched by […] resonance energy transfer (RET) between the donor and the acceptor, but as the NS3 protease cleaves the peptide the products are released from RET quenching and the fluorescence of the donor becomes apparent. The assay reagent was made as follows: 5× cell Luciferase cell culture lysis reagent from Promega (#E153A) diluted to 1× with dH2O, NaCl added to 150 mM final, the FRET peptide diluted to 20 μM final from a 2 mM stock.
To prepare plates, HCV replicon cells, with or without a Renilla luciferase reporter gene, were trypsinized and placed into each well of a 96-well plate with titrated test compounds added in columns 3 through 12; columns 1 and 2 contained a control compound (HCV protease inhibitor), and the bottom row contained cells without compound. The plates were then placed in a CO2 incubator at 37° C.
Assays. Subsequent to addition of the test compounds described above (FRET Assay Preparation), at various times the plate was removed and Alamar blue solution (Trek Diagnostics, #00-100) was added per well as a measure of cellular toxicity. After reading in a Cytoflour 4000 instrument (PE Biosystems), plates were rinsed with PBS and then used for FRET assay by the addition of 30 ul of the FRET peptide assay reagent described above (FRET Assay Preparation) per well. The plate was then placed into the Cytoflour 4000 instrument which had been set to 340 excite/490 emission, automatic mode for 20 cycles and the plate read in a kinetic mode. Typically, the signal to noise using an endpoint analysis after the reads was at least three-fold. Alternatively, after Alamar blue reading, plates were rinsed with PBS, 50 ul of DMEM (high glucose) without phenol red was added and plates were then used for luciferase assay using the Promega Dual-Glo Luciferase Assay System.
Compound analysis was determined by quantification of the relative HCV replicon inhibition and the relative cytotoxicity values. To calculate cytoxicity values, the average Alamar Blue fluorescence signals from the control wells were set as 100% non-toxic. The individual signals in each of the compound test wells were then divided by the average control signal and multiplied by 100% to determine […]. To calculate the HCV replicon inhibition values, an average background value was obtained from the two wells containing the highest amount of HCV protease inhibitor at the end of the assay period. These numbers were similar to those obtained from naïve Huh-7 cells.
The background numbers were then subtracted from the average signal obtained from the control wells and this number was used as 100% activity. The individual signals in each of the compound test wells were then divided by the averaged control values after background subtraction and multiplied by 100% to determine percent activity. EC50 values for a protease inhibitor titration were calculated as the concentration which caused a 50% reduction in FRET or luciferase activity. The two numbers generated for the compound plate, percent cytoxicity and percent activity were used to determine compounds of interest for further analysis.

A word on the IC50: it is the point on the concentration scale where inhibition reaches its midpoint. The low end stands for greater potency, the high end for weaker potency. As usually defined, the EC50 is the concentration needed to bring the measured effect to its halfway point. Read a low EC50 as higher potency in that assay. The compound `COc1ccc2c(c1)C=C(C(=O)N1CC3CCC(C1)N3C(=O)OC(C)(C)C)Cn1c-2c(C2CCCCC2)c2ccc(C(=O)NS(=O)(=O)N(C)C)cc21` yielded an IC50 in test [1] of 0.001 to 0.5 µM. In test [2] (Hepatitis C virus), this compound registered an EC50 of 0.001 to 0.5 µM.
In test [1], `COc1ccc2c(c1)C=C(C(=O)N1CC3CCC(C1)N3)Cn1c-2c(C2CCCCC2)c2ccc(C(=O)NS(=O)(=O)N(C)C)cc21` registered an IC50 of 0.001 to 0.5 µM. This compound also registered an EC50 in test [2] (Hepatitis C virus) of 0.001 to 0.5 µM.
For the compound `COc1ccc2c(c1)CC(C(=O)N1C3CCC1CN(C)C3)Cn1c-2c(C2CCCCC2)c2ccc(C(=O)NS(=O)(=O)N(C)C)cc21` (stereo not drawn), the half-maximal inhibitory concentration (IC50) in test [1] is 0.001 to 0.5 µM. Moreover, the EC50 in test [2] (Hepatitis C virus) lay in the range of 0.001 to 0.5 µM.
On to `COc1ccc2c(c1)C=C(C(=O)N1CC3CCC(C1)N3C)Cn1c-2c(C2CCCCC2)c2ccc(C(=O)NS(=O)(=O)N(C)C)cc21`, for which, in test [1], the IC50 lay within 0.001 to 0.5 µM. Further, in test [2] (Hepatitis C virus), the half-maximal effective concentration (EC50) lay within 0.001 to 0.5 µM.
The compound `COc1cccc2c1C=C(C(=O)N1C3CCC1CN(C)C3)Cn1c-2c(C2CCCCC2)c2ccc(C(=O)NS(=O)(=O)N(C)C)cc21` registered an IC50 in test [1] of 0.001 to 0.5 µM. In test [2] (Hepatitis C virus), this compound showed an EC50 of 0.001 to 0.5 µM.
Turning to `COc1cccc2c1C=C(C(=O)N1CC3CCC(C1)N3C(=O)OC(C)(C)C)Cn1c-2c(C2CCCCC2)c2ccc(C(=O)NS(=O)(=O)N(C)C)cc21`, the concentration for half-maximal inhibition (IC50) in test [1] was in the range of 0.001 to 0.5 µM. The compound also gave an EC50 in test [2] (Hepatitis C virus) of 0.001 to 0.5 µM.
In test [1], `COc1cccc2c1C=C(C(=O)N1CC3CCC(C1)N3)Cn1c-2c(C2CCCCC2)c2ccc(C(=O)NS(=O)(=O)N(C)C)cc21` displayed a concentration for half-maximal inhibition (IC50) of 0.001 to 0.5 µM. Further, in test [2] (Hepatitis C virus), the EC50 lay in the range of 0.001 to 0.5 µM.
`COc1cccc2c1C=C(C(=O)N1CC3CCC(C1)N3C)Cn1c-2c(C2CCCCC2)c2ccc(C(=O)NS(=O)(=O)N(C)C)cc21` displayed an IC50 in test [1] of 0.001 to 0.5 µM. The compound further yielded an EC50 in test [2] (Hepatitis C virus) of 0.001 to 0.5 µM.
As for `COc1ccc2c(c1)C=C(C(=O)N1C3CCC1CN(C1CC1)C3)Cn1c-2c(C2CCCCC2)c2ccc(C(=O)NS(=O)(=O)N(C)C)cc21`, the half-maximal inhibitory concentration (IC50) in test [1] was less than 0.02 µM. Moreover, the 50% effective concentration (EC50) in test [2] (Hepatitis C virus) fell in the range of 0.001 to 0.5 µM.
In the same order, the values of `COC(=O)c1ccc2c(C3CCCCC3)c3n(c2c1)CC(C(=O)N1C2CCC1CN(C)C2)=Cc1c(OC(F)(F)F)cccc1-3` are greater than 0.5 µM and greater than 0.5 µM.
In test [1], `CN1CC2CCC(C1)N2C(=O)C1=Cc2c(OC(C)(F)F)cccc2-c2c(C3CCCCC3)c3ccc(C(=O)NS(=O)(=O)N(C)C)cc3n2C1` yielded a half-maximal inhibitory concentration (IC50) greater than 0.5 µM. Further, the EC50 in test [2] (Hepatitis C virus) was greater than 0.5 µM.
In test [1], `COc1ccc2c(c1)C=C(C(=O)N1C3CCC1CN(C)C3)Cn1c-2c(C2CCCCC2)c2ccc(C(=O)NS(=O)(=O)C3CC3)cc21` came in with a concentration for half-maximal inhibition (IC50) of 0.001 to 0.5 µM. In test [2] (Hepatitis C virus), this compound showed a 50% effective concentration (EC50) of 0.001 to 0.5 µM.
In the case of `COC(=O)c1ccc2c(C3CCCCC3)c3n(c2c1)CC(C(=O)N1C2CCC1CN(C)C2)=Cc1cc(OC)ccc1-3`, the IC50 in test [1] was greater than 0.5 µM. The EC50 in test [2] (Hepatitis C virus) is greater than 0.5 µM.
As to `COc1ccc2c(c1)C=C(C(=O)N1C3CCC1CN(C)C3)Cn1c-2c(C2CCCCC2)c2ccc(C(=O)O)cc21`, the IC50 in test [1] was in the range of 0.001 to 0.5 µM. Besides, the EC50 in test [2] (Hepatitis C virus) fell in the range of 0.001 to 0.5 µM.
In test [1], `COc1ccc2c(c1)C=C(C(=O)N1C3CCC1CN(C)C3)Cn1c-2c(C2CCCCC2)c2ccc(C(=O)NS(=O)(=O)C(C)C)cc21` had an IC50 of 0.001 to 0.5 µM. Besides, the half-maximal effective concentration (EC50) in test [2] (Hepatitis C virus) was 0.001 to 0.5 µM.
The compound `CCC(C)S(=O)(=O)NC(=O)c1ccc2c(C3CCCCC3)c3n(c2c1)CC(C(=O)N1C2CCC1CN(C)C2)=Cc1cc(OC)ccc1-3` (stereo not drawn) registered an IC50 in test [1] of 0.001 to 0.5 µM. Further, in test [2] (Hepatitis C virus), the concentration for a half-maximal effect (EC50) was in the range of 0.001 to 0.5 µM.
Turning to `COc1ccc2c(c1)C=C(C(=O)N1C3CCC1CN(C)C3)Cn1c-2c(C2CCCCC2)c2ccc(C(=O)NS(=O)(=O)N(C)C)cc21` [drawing 16], in test [1], the 50% inhibitory concentration (IC50) fell in the range of 0.001 to 0.5 µM. In test [2], this compound returned a half-maximal effective concentration (EC50) of 0.001 to 0.5 µM.
Take `COc1ccc2c(c1)C=C(C(=O)N1C3CCC1CN(C)C3)Cn1c-2c(C2CCCCC2)c2ccc(C(=O)NS(=O)(=O)N(C)C)cc21` [drawing 25]: the IC50 in test [1] lay in the range of 0.001 to 0.5 µM. This compound showed a half-maximal effective concentration (EC50) in test [2] (Hepatitis C virus) of 0.001 to 0.5 µM.
